Results reported in paper PMC10708475, “HPLC-DAD-MS Characterization, Antioxidant Activity, α-amylase Inhibition, Molecular Docking, and ADMET of Flavonoids from Fenugreek Seeds” (Molecules, 2023).

Legend:
[1] = Ferric-reducing antioxidant power (FRAP) assay; conditions: concentration indicating 0.50 absorbance, 700 nm; maximum tested 200 µg/mL
Procedure: The ferric-reducing antioxidant power (FRAP) assay was carried out according to [119]. The reaction mixture contained 10 μL of the extracts, 40 µL phosphate buffer (pH 6.6), and 50 μL potassium ferricyanide K3[Fe (CN)6] (1%), was incubated at 50 °C for 20 min, then 50 µL of trichloroacetic acid (TCA) (10%) and 40 µL of distilled water and 10 µL of ferric chloride FeCl3 (0.1%) were added. Then, the absorbance was measured at 700 nm using a microplate reader of type PerkinElmer (Enspire) against a blank. Tannic acid, α-tocopherol, and ascorbic acid were used as references.
The results of the tests carried out are expressed as an average ± SD of analyses in three tests. […] The one-way analysis of variance ANOVA was used to detect significant differences (p < 0.05).

[2] = DPPH radical scavenging assay; conditions: 30 min, 517 nm
Procedure: The ability of radical scavenging was determined according to [118], using the radical DPPH• (2,2-diphenyl-1-picrylhydrazyl). 160 µL of DPPH solution (0.15 mM) was added to 40 µL of the diluted extracts in methanol and incubated in the dark. After 30 min of incubation, the absorbances were measured at 517 nm by a microplate reader of type PerkinElmer (Enspire) against a blank. BHA, BHT, and α-tocopherol were used as reference antioxidants. DPPH inhibition percentage was calculated using the following equation:(3) Inhibition(%)=A0−As/A0×100 where A0 is the absorbance of the control (without the sample) and As is the absorbance of the tested samples. The antioxidant activity of the extracts and standards was expressed as IC50 (the concentration of the tested samples that inhibits 50% of DPPH radicals).
(§1) The results of the tests carried out are expressed as an average ± SD of analyses in three tests. The values of IC50 (50% inhibition concentration) and A0.5 (the concentration indicating 0.50 absorbance) are calculated using the linear regression method from the two curves: [% inhibition = f (concentration)] for IC50 and [Absorbance = f (concentration)] for A0.5. All the antioxidant and enzymatic tests were carried out at more than four concentration values. The one-way analysis of variance ANOVA was used to detect significant differences (p < 0.05).

[3] = ABTS+ scavenging activity; conditions: 10 min, 734 nm
Procedure: The ABTS•+ assay (2, 2′-azino-bis (3-ethylbenzthiazoline-6-sulfonic acid)) was carried out according to the method with some modifications. The ABTS+ reagent was prepared as follows: 19.2 mg of ABTS (7 mM) in 5 mL distilled water was mixed with 3.3 mg of Potassium persulfate K2S2O8 (2.45 mM) in 5 mL distilled water, and the mixture was incubated for 16 h in the dark before use. We have added 160 µL of ABTS+ reagent to 40 μL of extract solutions. After 10 min of incubation, the absorbance was read at 734 nm using a microplate reader of type PerkinElmer (Enspire). BHA and BHT were used as references. The total antioxidant activity of the extracts was calculated as follows:(4) ABTS^+scavenging effect (%)=AControl−ASample/AControl×100
as §1

| Compound | FRAP A0.5 [1] | DPPH Inhibition IC50 [2] | ABTS Inhibition IC50 [3] |
| --- | --- | --- | --- |
| O=C1O[C@H]([C@@H](O)CO)C(O)=C1O [Ascorbic acid] | 6.77 ± 1.15 µg/mL | – | – |
| COc1ccc(O)c(C(C)(C)C)c1 [BHA, Butylated hydroxyanisole] | – | 6.14 ± 0.41 µg/mL | 1.81 ± 0.10 µg/mL |
| Cc1cc(C(C)(C)C)c(O)c(C(C)(C)C)c1 [BHT, hydroxytoluene] | – | 12.99 ± 0.41 µg/mL | 1.29 ± 0.30 µg/mL |
| Tannic acid | 5.39 ± 0.91 µg/mL | – | – |
